Source: US20140050668A1, “VISUALIZATION OF LIPID METABOLISM” (UNIVERSITAETSKLINIKUM HAMBURG-EPPENDORF, priority 2011, published 2014)
“Also recorded” adds a separate entry of the source.

Tests used:
LPL [1] = target: T1, LPL (Mus musculus, UniProt P11152); assay: MRI of SPIO-nanosome uptake after pre-injection of THL, heparin or chylomicrons; type: in vivo, mice; conditions: for uptake of SPIO-nanosomes into BAT, T2*-weighted MRI: cold-exposed FVB mice, pre-injection 1 min before SPIO-nanosomes
T1 construct: from tissue; host or cells: living wild-type FVB mice (in vivo; endothelium of BAT, heart and other lipid-consuming tissues)
T1 sequence (P11152 28-474): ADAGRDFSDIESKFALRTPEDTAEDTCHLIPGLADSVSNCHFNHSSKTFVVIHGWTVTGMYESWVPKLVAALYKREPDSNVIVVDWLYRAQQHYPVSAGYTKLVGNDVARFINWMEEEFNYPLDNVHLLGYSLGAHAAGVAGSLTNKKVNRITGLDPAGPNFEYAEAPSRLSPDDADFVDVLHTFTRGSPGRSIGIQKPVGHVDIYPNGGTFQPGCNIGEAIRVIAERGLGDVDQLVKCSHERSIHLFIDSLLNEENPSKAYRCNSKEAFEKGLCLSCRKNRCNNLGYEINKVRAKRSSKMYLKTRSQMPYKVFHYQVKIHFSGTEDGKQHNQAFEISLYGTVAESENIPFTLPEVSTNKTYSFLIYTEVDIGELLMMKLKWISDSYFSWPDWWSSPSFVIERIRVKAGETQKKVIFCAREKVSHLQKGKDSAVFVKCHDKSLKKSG
Protocol: Animals and diets. All experimental procedures were performed with approval from the animal care committees responsible for the University Medical Center Hamburg-Eppendorf. Animals were housed at 22° C. with ad libitum access to standard laboratory chow diet. We used male and female age-matched (16-22 weeks) FVB wildtype mice which were fasted 24 h or 4 h prior to the experiment. Fasting (22° C.) and cold exposure (4° C.) was performed in single cages for 24 h unless indicated otherwise.
For manipulation of LPL function, THL (Roche, 12.5 mg ml^−1 DMSO) was diluted to 1.25 mg ml^−1 in 10% DMSO in PBS. Mice received 200 μL of either 0.25 mg THL, 50 U heparin (ratiopharm) or PBS (mock). After 1 min, SPIO-nanosomes were injected, and plasma clearance and organ uptake were determined by dynamic MRI.
In vivo imaging studies. MRI was performed as described before^14. Briefly, all static and dynamic MRI measurements were performed with a clinical 3 Tesla MR scanner (Philips Medical Systems, Netherlands) equipped with a custom-made small animal solenoid coil. The dynamic measurements were based on a gradient-echo sequence (Supplementary table 3). The applied sequence is highly sensitive to susceptibility effects caused by local magnetic field inhomogeneities caused by SPIO-TRL. DICOM data were processed with ImageJ (http://rsbweb.nih.gov/ij/). SPIO-nanosomes were injected via a tail vein catheter.

LPL [2] = target: T1, LPL; assay: Organ distribution of 59Fe-SPIO- and 3H-triolein-labeled TRL after pre-injection of THL or heparin; type: in vivo; conditions: cold FVB mice; for uptake of 3H-triolein into BAT / uptake of 59Fe-SPIO into BAT: pre-injected 1 min before radiolabeled TRL i.v., organs 15 min after injection
Protocol: (§1) Turnover studies and organ distribution. For turnover studies, anesthetized mice were tail vein injected with 200 μl radiolabeled TRL. Lipoprotein turnover was determined from 10 μl plasma 0.5, 1, 2, 5 and 15 min after injection. After 15 min, blood was removed by cardiac puncture, the right atrium was opened, and the carcass was perfused through the left ventricle with PBS containing 50 U mL^1 heparin. Then, organs were harvested and weighed. For measurement of radioactivity, organs were solubilized in Solvable (PerkinElmer, Boston, USA, 0.1 mL per 10 mg organ), 200 μL were counted in scintillation fluid and TRL uptake was calculated as c.p.m. per mg organ. Oral fat tolerance tests were performed by gavage of 100 μL olive oil with [9,10-^3H(N)]-triolein (370 KBq per mouse). To measure lipoprotein production triton WR-1339 (Tyloxapol from Sigma; 0.5 mg per g body weight as 10% solution in PBS) was injected into the tail vein. Plasma was collected at indicated time points. For the measurement of hepatic production 1(3)-^3H glycerol (125 KBq per mouse) was injected prior to triton WR-1339. Lipids were extracted from plasma samples and ^3H-glycerol incorporated into triglycerides was measured as described above. For chylomicron production mice received ^3H-triolein in olive oil by gavage as described above directly after triton WR-1339 injection. Intestine-derived radioactivity in plasma was measured as described above. For manipulation of LPL function, THL (Roche, 12.5 mg ml^−1 DMSO) was diluted to 1.25 mg ml^−1 in 10% DMSO in PBS. Mice received 200 μL of either 0.25 mg THL, 50 U heparin (ratiopharm) or 10% DMSO in PBS (mock). After 1 min ^59Fe-SPIO- and ^3H-triolein-labeled TRL were injected and plasma clearance and organ uptake were determined as described above. For postprandial studies mice were i.p. injected with 0.25 mg THL or mock solution prior to gavage of 200 μL olive oil. Blood was collected at indicated time points and plasma triglyceride levels were determined.

LPL [3] = target: T1, LPL; assay: Oral fat tolerance test in cold mice pre-treated with THL; type: in vivo; conditions: cold FVB mice; i.p. pre-treatment; versus mock-treated cold mice (no increase)
Protocol: as §1, with “For chylomicron production mice received ^3H-triolein in olive oil by gavage as described above directly after triton WR-1339 injection.” left out, “For manipulation of LPL function, THL (Roche, 12.5 mg ml^−1 DMSO) was diluted to 1.25 mg ml^−1 in 10% DMSO in PBS. Mice received 200 μL of either 0.25 mg THL, 50 U heparin (ratiopharm) or 10% DMSO in PBS (mock). After 1 min ^59Fe-SPIO- and ^3H-triolein-labeled TRL were injected and plasma clearance and organ uptake were determined as described above. For postprandial studies mice were i.p. injected with 0.25 mg THL or mock solution prior to gavage of 200 μL olive oil.” left out

BAT = assay: Intravital confocal imaging of fluorescent-labeled TRL in BAT; type: in vivo, mice
Protocol: In vivo imaging studies. MRI was performed as described before. Briefly, all static and dynamic MRI measurements were performed with a clinical 3 Tesla MR scanner (Philips Medical Systems, Netherlands) equipped with a custom-made small animal solenoid coil. The dynamic measurements were based on a gradient-echo sequence (Supplementary table 3). The applied sequence is highly sensitive to susceptibility effects caused by local magnetic field inhomogeneities caused by SPIO-TRL. DICOM data were processed with Image (http://rsbweb.nih.gov/ij/). For cryo electron microscopy, SPIO-TRL were intravenously injected into control or cold wild-type FVB mice. After 30 min mice were sacrificed, BAT biopsies were taken and processed for transmission electron microscopy (TEM) as described. Micrographs were obtained with a FBI Eagle 4k CCD camera and a Technal 20 TEM operated at 200 kV. For environmental scanning electron microscopy studies of BAT anaesthetized mice were perfused with PBS-Heparin as above and organs were fixed with 2.5% glutaraldehyde in PBS, washed, and postfixed for 30 min with 1% […] in PBS. For intravital microscopy interscapular BAT was dissected in anaesthetized mice and visualized by a confocal microscope equipped with a resonant scanner (Nikon AIR). QD-labeled TRL and fluorescent probes were injected via a tail vein catheter and 15 or 30 confocal images per second were recorded. The acquired data sets were aligned to reduce object movements due to mouse breathing and denoised with a Savitzky-Golay filter in Nikon NIS Elements AR 3.10. Labeling, animations and quicktime-export were done with Adobe After Effects CS4.

Row | Compound | uptake of SPIO-nanosomes into the heart (myocard), T2*-weighted MRI (LPL [1]; 24 h fasted FVB mice, inhibitor injected 1 min before SPIO-nanosomes) | uptake of SPIO-nanosomes into BAT, T2*-weighted MRI (LPL [1]) | uptake of 3H-triolein into BAT (LPL [2]) | uptake of 59Fe-SPIO into BAT (LPL [2]) | uptake of TRL into the heart (LPL [2]; pre-injected before radiolabeled TRL) | plasma triglycerides after lipid gavage (LPL [3]) | fluorescent-labeled TRL initially bound to the vascular wall (BAT; heparin after initial TRL binding) | already internalized TRL particles (BAT; time-delayed heparin injection) | binding of a second bolus of TRL (BAT; time-delayed heparin injection)
1 | CCCCCCCCCCC[C@@H](C[C@@H]1OC(=O)[C@H]1CCCCCC)OC(=O)[C@H](CC(C)C)NC=O [THL, Tetrahydrolipstatin] | not enhanced; also recorded: abolished | not enhanced; also recorded: abolished | abolished | abolished | inhibited | significant postprandial triglyceride response | – | – | –
2 | heparin | – | blocked | blocked | blocked | – | – | released | no influence | blocked
